{
  "source": "patent US20260207535A1",
  "about": "“CRIBLAGE INHIBITEURS USP8” (COMMISSARIAT A L'ENERGIE ATOMIQUE ET AUX ENERGIES …, priority 2022, published 2026)",
  "key": {"Papain": {"molecular_target": "T1, Papain (Carica papaya, UniProt P00784)", "T1 construct": "purchased Sigma P4762", "T1 sequence (P00784 134-345)": "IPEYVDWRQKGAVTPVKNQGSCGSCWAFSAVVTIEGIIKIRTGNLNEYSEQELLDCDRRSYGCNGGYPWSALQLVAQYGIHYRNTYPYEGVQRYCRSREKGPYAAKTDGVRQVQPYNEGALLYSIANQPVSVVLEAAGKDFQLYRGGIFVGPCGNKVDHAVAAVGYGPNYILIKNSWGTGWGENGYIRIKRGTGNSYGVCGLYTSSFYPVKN", "experiment": "Papain inhibition (casein digestion, SDS-PAGE)", "assay_type": "biochemical", "procedure": "Papain (Sigma ref. P4762) and casein (Merck ref. VM874644) were dissolved in 40 mM TrisHCl buffers pH6.8 and pH9.5 respectively. Casein at the concentration of 0.5 μg/μl was incubated with the inhibitory compounds at efficient inhibitory concentration or with DMSO for 15 min and then digested by Papain (2.5 ng/μl) at RT over 45 min. The digestion samples were collected at time: 5, 15, 30 and 45 min. To inactivate the protease Laemmli 2× was added and each sample was heated at 95° C. for 5 min then analyzed with SDS-PAGE and stained with Coomassie Blue."}, "[1]": {"molecular_target": "T2, catalytic domain of USP2 (USP2CD) (Homo sapiens, UniProt O75604)", "T2 construct": "The purified catalytic domain of USP2 (USP2CD, in-house purified) was used; made in house", "T2 sequence (O75604 267-599 limits assumed)": "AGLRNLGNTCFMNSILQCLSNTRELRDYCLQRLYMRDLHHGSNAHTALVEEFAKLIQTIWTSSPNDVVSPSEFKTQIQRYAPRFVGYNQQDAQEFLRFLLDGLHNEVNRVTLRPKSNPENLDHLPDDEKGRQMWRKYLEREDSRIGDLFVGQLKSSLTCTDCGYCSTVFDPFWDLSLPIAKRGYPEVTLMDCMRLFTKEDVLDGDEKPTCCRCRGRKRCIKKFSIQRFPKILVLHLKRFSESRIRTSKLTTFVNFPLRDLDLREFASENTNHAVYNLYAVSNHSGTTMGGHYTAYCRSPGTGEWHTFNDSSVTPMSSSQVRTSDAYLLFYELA", "experiment": "USP2 CD inhibition (Ub-Rho)", "assay_type": "biochemical", "conditions": "USP2CD 16 nM", "procedure": "The purified catalytic domain of USP2 (USP2CD, in-house purified) was used at a concentration of 16 nM in the presence of the artificial substrate Ub-Rho. Inhibition assays were performed as described above."}, "UCH-L3": {"molecular_target": "T3, UCH-L3 (Homo sapiens, UniProt P15374)", "T3 construct": "or the more distant UCH-L3 enzyme (Full length); purchased BostonBiochem E-325", "T3 sequence (P15374 1-230)": "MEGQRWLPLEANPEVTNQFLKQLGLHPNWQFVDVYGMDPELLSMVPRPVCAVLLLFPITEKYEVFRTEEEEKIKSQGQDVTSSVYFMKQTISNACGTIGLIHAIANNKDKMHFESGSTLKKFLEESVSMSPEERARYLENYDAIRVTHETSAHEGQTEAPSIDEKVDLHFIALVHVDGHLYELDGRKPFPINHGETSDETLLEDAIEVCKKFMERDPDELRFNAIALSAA", "experiment": "UCH-L3 inhibition assay (Ub-Rhodamine)", "assay_type": "biochemical", "conditions": "UCH-L3 3 nM", "procedure": "UCH-L3 (BostonBiochem ref. E-325) was used at a concentration of 3 nM in the presence of the Ub-Rhodamine. Enzymatic inhibition was monitored as for USP8 or USP2 CD."}, "AtT-20 pituitary cells": {"tested_on": "AtT-20 pituitary cells", "experiment": "Inhibition of ACTH secretion in pituitary cells (ACTH EIA on supernatant)", "assay_type": "cell-based, mouse", "procedure": "ACTH release (percent comparison to DMSO control). Briefly, 12,500 AtT-20 cells per well were seeded in a 96-well plate. After 24 hours exposure, cells were treated with each compound at the indicated final concentration, or with DMSO alone (control condition compound solvent) or with corticotropin releasing factor (indicated CRF) at 100 nM. After a 24-hour treatment, cell supernatants were collected and stored at −80° C., prior to quantification of ACTH concentration using ACTH chemiluminescent EIA kit (Phoenix Pharmaceuticals, Inc.). Determination of ACTH concentrations was based on the best-fitting ACTH standard curve and P values were calculated using one-way ANOVA, using Prism 9 software (GraphPad Software, Inc.) ns (P=0.12). **P<0.002. ***P<0.001. All compounds were tested in technical triplicates. One representative experiment out of three is presented.\nFIG. 4: illustrates a decrease of ACTH secretion by AtT-20 cells after 24-hour treatment of halogenated salicylanilides. 12,500 AtT-20 cells per well were seeded in a 96-well plate. […] After a 24-hour treatment, cell supernatants were collected and stored at −80° C., prior to quantification of ACTH concentration using ACTH chemiluminescent EIA kit (Phoenix Pharmaceuticals, Inc.). Determination of ACTH concentrations was based on the best-fitting ACTH standard curve and P values were calculated by ordinary one-way ANOVA using Prism 6 software (GraphPad Software, Inc), ns (not significant), **** P<0.0001. Compounds were tested in technical triplicates.\n12,500 AtT-20 cells per well were seeded in a 96-well plate. After 24 hours, cells were treated with compounds (corresponding chemical formula are indicated in Table 1) at 25 μM final concentration, or with DMSO alone (compound solvent). After a 24-hour treatment, cell supernatants were collected and stored at −80° C., prior to quantification of ACTH concentration using ACTH chemiluminescent EIA kit (Phoenix Pharmaceuticals, Inc.). Determination of ACTH concentrations was based on the best-fitting ACTH standard curve and P values were calculated by ordinary one-way ANOVA using Prism 6 software (GraphPad Software, Inc), ns (not significant), *P<0.05, ***P<0,0001. Compounds were tested in technical triplicates.\nMouse AtT-20 pituitary cell line were used as a powerful and well-characterized model to monitor ACTH secretion using an enzyme immunoassay (EIA) kit.\nMouse AtT-20 cells were obtained from the American Type Culture Collection and maintained on DMEM containing 10% fetal bovine serum, 100 μg/mL streptomycin and 100 U/mL penicillin at 37° C. with 5% CO2 after recovery from long-term storage on liquid nitrogen-vapor phase.\nThe ACTH secretion levels of AtT-20 cell culture was monitored on the supernatant of AtT-20 cells treated or not by increasing doses of compounds belonging to the family of halogenated salicylanilides chemicals.\n1.25×10^4 AtT20 cells were seeded on polylysine-coated 96-well culture vessels on 150 μL of complete medium. After 24 hours, cells were treated with stock compounds to a final DMSO concentration of 0.5%. After 24 hours of treatment, cell culture supernatant was collected, cleared for 10 min at 1000×g at 4° C., diluted or not in assay buffer (Phoenix Peptide ACTH EIA EK-001-21) and frozen at −80° C. for subsequent processing according to the instructions of the kit's manufacturer."}},
  "data": [
    {"smiles": "Cc1cc(C(C#N)c2ccc(Cl)cc2)c(Cl)cc1NC(=O)c1cc(I)cc(I)c1O", "note": "(centres unmarked) [Closantel, reference compound]", "values": [
      {"measurement": "activity against papain", "setting": "Papain", "value": "not active"},
      {"measurement": "activity against USP2CD", "setting": "[1]", "value": "active"},
      {"measurement": "activity against UCH-L3", "setting": "UCH-L3", "value": "not active"},
      {"measurement": "reduction in ACTH release", "setting": "AtT-20 pituitary cells; 5.62 μM, compared to control", "value": 20, "unit": "%"},
      {"measurement": "inhibition of ACTH at 25 μM, in words (FIG. 4, FIG. 5)", "setting": "AtT-20 pituitary cells; 25 μM, 24-hour treatment", "value": "significant inhibition"},
      {"measurement": "ACTH secretion reduction", "setting": "AtT-20 pituitary cells; 30 μM, compared to control conditions", "value": 60, "unit": "%"},
      {"measurement": "activity at 25 µM", "setting": "AtT-20 pituitary cells; Mus musculus, AtT20, 25 μM, 24-hour treatment, AtT-20 supernatant, read-out: ACTH secretion % of control (DMSO) at 25 μM", "value": 65, "unit": "%"},
      {"measurement": "dose-dependent inhibition of ACTH (FIG. 3)", "setting": "AtT-20 pituitary cells; increasing concentrations, 24-hour treatment", "value": "significant dose-dependent inhibition"}
    ]}
  ]
}
